Test results as given in patent US5703241A, “Inhibitor of farnesyl-protein transferase” (Merck & Co., Inc., priority 1996, dated 1997).
pIC50: −log10 of the molar value.

Assays:
[1] = tested on: farnesyl-protein transferase in white blood cells; assay: In vivo pharmacodynamic effects of farnesyl-protein transferase inhibitors in mammalian white blood cells; details: following a single administration of the compound
Protocol: In vivo pharmacodynamic effects of farnesyl-protein transferase inhibitors in mammalian white blood cells
The test mammal (beagle, Cynomolgus monkey, Rhesus monkey or African green monkey) is dosed by an IV, PO or suppository dose of a given concentration of drug in a suitable vehicle, such as IV:5% EtOH/citrate buffered saline, PO:50 mmol citric acid in water and suppository: 17.7% compound, 38% hydrous lactose; 44.3% PEG 8000.
Following drug dosing, the animals are bled at times t=0, 5 mins., 15 mins., 30 mins., 60 mins., 90 mins., 180 mins.(3 hours), 270 mins. (4.5 hours), 360 mins. (6 hours) and 1440 mins. (24 hours) by withdrawing 3 mL of blood into a sodium heparin vacutainer tube and placing the drawn blood immediately on ice. The vacutainer tubes are then spun at 2800 rpm in a table top centrifuge for 5 minutes at 4 degrees. Following the spin, the upper plasma layer is withdrawn from the vacutainer tube leaving an 1/8" of plasma on top of the blood pellet. The vacutainer tubes and plasma tubes are then put into dry ice for a quick freeze and once frozen, the samples are stored at -70° degrees.
For evaluation of the white blood cells, the frozen vacutainer tube is broken at the bottom utilizing a triangular metal file, and the frozen pellet of blood is removed (prior to breaking the tube it can warmed slightly in a 30° bath taking precautions not to melt the pellet). […]

human FPTase = molecular target: T1, human FPTase (Homo sapiens, UniProt P49354+P49356); assay: In vitro inhibition of human farnesyl-protein transferase ([3H]-FPP incorporation into Ras-CVIM); assay type: biochemical; details: 100 nM Ras-CVIM, 30 min, read-out: IC50, inhibitory activity against human FPTase
T1 construct: made in house

pIC50 (human FPTase) | SMILES | inhibition of FPTase in white blood cells of mammals [1]
 | COc1ccccc1CN(CC(=O)N[C@@H](CCSC)C(=O)OC(C)C)C[C@@H]1CCCN1C(=O)CCc1c[nH]cn1 [Example 1, N-[1-(1H-Imidazol-4-propionyl)pyrrolidin-2(S)-ylmethyl]-N-(2-methoxybenzyl) glycyl-methionine isopropyl ester] | sustained inhibition of FPTase in white blood cells
> 5.00 | COc1ccccc1CN(CC(=O)N[C@@H](CCSC)C(=O)O)C[C@@H]1CCCN1C(=O)CCc1c[nH]cn1 [Example 2, N-[1-(1H-Imidazol-4-propionyl)pyrrolidin-2(S)-ylmethyl]-N-(2-methoxybenzyl)glycyl-methionine] | 
